Assay results published in US4585795A, “Control agent for protecting timber against fungi employing a mixture of an organic carboxylic acid salt and quaternary ammonium salt” (priority 1982, dated 1986).
Converted amounts (≈) assume the structure as drawn. “And” between values parts separate entries of the source, which are not always exact repeats. Equal values may be shown once. “Also recorded” adds a separate entry of the source. Where a name gives a salt, the structure may show the parent alone. Read-outs that look alike come from different tables or passages of the source.

Legend:
Aureobasidium pullulans = assay: dish cultures, growth inhibition of A. pullulans (Czapek-Dox agar); assay type: cell-based; conditions: 360 h
Procedure: Laboratory experiments were carried out by making (1) dish cultures with Czapek-Dox agar at a temperature of 23° C. and (2) mini-board tests at a temperature of 23° C. and a humidity of 100%. The dish cultures had been inoculated with spores of the fungus Aureobasidium pullulans. This is a known fungus causing sapstain. In the mini-board tests, the inoculation was carried out using a spore suspension which contained a mixture of the spores of sapstain fungi. The sapstain fungi used were Aureobasidium pullulans, Sclerophoma entoxylina and Ceratocystis pilifera. […]
In dish cultures with A. pullulans fungus it was observed that growth was inhibited at, for example, the following concentrations of the control agents studied within a culture period of 15 days:
Using certain mixtures of these control agents, fungus growth could be inhibited at the following concentrations, for example: […]

[1] = known organic acids used as control agents; cited from earlier work
surface mildew = assay: mini-board test on timber, surface mildew; conditions: Example 2; 1.2% active ingredient in wetting solution, pH 8.4, fresh timber, 23° C., 1 month; 0-5 very good, 6-10 average, 11-15 poor, 16-20 very poor
Procedure: (§1) Laboratory experiments were carried out by making (1) dish cultures with Czapek-Dox agar at a temperature of 23° C. and (2) mini-board tests at a temperature of 23° C. and a humidity of 100%. The dish cultures had been inoculated with spores of the fungus Aureobasidium pullulans. This is a known fungus causing sapstain. In the mini-board tests, the inoculation was carried out using a spore suspension which contained a mixture of the spores of sapstain fungi. The sapstain fungi used were Aureobasidium pullulans, Sclerophoma entoxylina and Ceratocystis pilifera.
(§2) In the mini-board tests it was studied whether the toxic effect is retained on the surface of timber. The dimensions of the mini-boards were 10×50×300 mm. They had been made from newly felled pine. The pieces were immersed for 20 s into the solutions studied and were then weighed and inoculated. The control pieces were immersed into pure water. Some of the test pieces were dried for 1 month at 23° C. at a humidity of 100% in dishes covered with a plastic sheet, whereafter the sapstain and the mildew growth in them were assessed visually.
(§3) The control agent composition presented in Test 4 of Example 3 was modified in such a way that part of the dodecylbenzyldimethylammonium chloride was replaced with technical dialkyldimethylammonium chloride which contained, bound with nitrogen, C8 -C18 alkyl groups as follows: […], C10 -9%, C12 -47%, C14 -18%, C16 -8% and C18 -10%.

[2] = system: sapstain fungi (Aureobasidium pullulans, Sclerophoma entoxylina, Ceratocystis pilifera); assay: mini-board test on timber, sapstain; conditions: for Grading points, Sapstain: Example 2, 1.2% active ingredient in wetting solution, pH 8.4, fresh timber, 23° C., 1 month, 0-5 very good, 6-10 average, 11-15 poor, 16-20 very poor; for synergism with Na-2-ethylhexanoate (in words): examples 2, 5, 6 and 12
Procedure: as §1, §2, §3

[3] = system: mildew fungi (Cladosporium sphaerospermum, Penicillum Sp., Aspergillus amstelodami); assay: mini-board one-side immersion test, mildew growth (DDC / 2-EHA-Na); conditions: Example 6; dry matter of wetting solution 1.5%
Procedure: The concentration of the solution was 2.5%. The immersion period was 20 s. The boards were allowed to drip, and they were inoculated with the above-mentioned spore suspension of sapstain fungi.
The following experiment was carried out as in Example 5, but a suspension of spores of the mildew fungi listed below was used for the inoculations:
(§4) Cladosporium sphaerospermum

[4] = system: sapstain fungi (Aureobasidium pullulans, Sclerophoma entoxylina, Ceratocystis pilifera); assay: mini-board one-side immersion test, sapstain (DDC / 2-EHA-Na); conditions: 3 weeks, 23° C.
Procedure: as §1
[…] The immersion period was 20 s. The boards were allowed to drip, and they were inoculated with the above-mentioned spore suspension of sapstain fungi.

mold fungi [5] = assay: miniboard test, molds (surface mildew) (Examples 8-12); conditions: for Growth of fungi, Molds (score): Example 12, pH 10; for synergism with trimethylcoco ammonium chloride (in words): mold tests, Examples 8-11; for Growth of fungi, Freshly cut pine sapwood, Molds (score): average of ten replicates
Procedure: as §4
(§5) The other half of the miniboards was dipped into the control agent solutions for 20 seconds. […] The pH was 8.5-10.0. The board were allowed to drip and they were inoculated with the above mentioned spore suspensions of sapstain and mold fungi. The boards were stored at 100% relative humidity (R.H.) at 20° C. They were inspected and visually rated after 3 weeks incubation time.
(§6) 1--some traces of fungal growth
(§7) 2--several colonies of growing fungi
(§8) 3--25% of the surface discoloured
(§9) 4--50% of the surface discoloured
(§10) The miniboards were inspected and rated after 3 weeks incubation time at 20° C. and 100% R.H. Results are presented in tables 3 and 4 as the average score of ten replicate samples.
(§11) Results are presented in tables 5-7 as the average score of ten replicate samples.
(§12) The miniboards were treated as in foregoing examples but the treatment solution contained dioctyldimethylammonium chloride instead of trimethylcocoammonium chloride.

sapstain fungi [6] = assay: miniboard test, sapstain (Examples 8-12); conditions: for Growth of fungi, Sapstain (score): Example 12, pH 10
Procedure: as §1, §5, §6, §7, §8, §9, §10, §11, §12

mold fungi [7] = assay: miniboard test, molds (surface mildew) (Examples 8-12); conditions: TABLE 2; […] active ingredients, pH 8.5-10.0, 5 weeks, 20° C., 100% R.H.; average of ten replicates
sapstain fungi [8] = assay: miniboard test, sapstain (Examples 8-12); conditions: TABLE 2; […] active ingredients, pH 8.5-10.0, 5 weeks, 20° C., 100% R.H.; average of ten replicates
[9] = pH 2.5, read-out: concentration at which growth was inhibited
[10] = pH 5, read-out: concentration at which growth was inhibited
[11] = pH 7, read-out: concentration at which growth was inhibited
[12] = pH 2.5, 15 days culture, single agents, read-out: concentration at which growth was inhibited
[13] = pH 5.0, 15 days culture, single agents, read-out: concentration at which growth was inhibited
[14] = pH 7.0, 15 days culture, single agents, read-out: concentration at which growth was inhibited
[15] = Example 5, Test 1, dry matter of wetting solution 1.5%
[16] = Example 5, Test 2, dry matter of wetting solution […]
[17] = TABLE 1, […] active ingredients, pH 8.5-10, 3 weeks, brackets not explained
[18] = TABLES 5-7, […] active ingredients, pH 8.5-10.0, rated as in examples 9-10
[19] = TABLES 5-7, […] active ingredients, pH 8.5-10.0, rated as in examples 9-10, average of ten replicates
[20] = TABLES 3-4, […] active ingredients, pH 8.5-10.0, 3 weeks, 20° C., 100% R.H.
[21] = TABLES 3-4, […] active ingredients, pH 8.5-10.0, 3 weeks, 20° C., 100% R.H., average of ten replicates

CCCCC(CC)C(=O)O (stereo not shown) [2-ethyl hexanoic acid]
MIC (Aureobasidium pullulans; [9]): 50 µg/mL (≈ 347 µM) | MIC (Aureobasidium pullulans; [10]): > 100 µg/mL | MIC (Aureobasidium pullulans; [11]): > 1000 µg/mL | pKa [1]: 4.81

CC(=O)Oc1ccccc1C(=O)O [Acetylsalicylic acid]
MIC (Aureobasidium pullulans; [9]): 25 µg/mL (≈ 139 µM) | MIC (Aureobasidium pullulans; [10]): > 100 µg/mL | MIC (Aureobasidium pullulans; [11]): > 1000 µg/mL

CCCCCCCCCCCC[N+](C)(C)Cc1ccccc1.[Cl-] [BAC, dodecylbenzyldimethylammonium chloride]
MIC (Aureobasidium pullulans; [9]): 50 µg/mL | MIC (Aureobasidium pullulans; [10]): 10 µg/mL | MIC (Aureobasidium pullulans; [11]): 2 µg/mL | Grading points, Surface mildew (surface mildew): 8.5 points and 4.5 points | Grading points, Sapstain [2]: 2 points and 1.5 points | synergism with Na-2-ethylhexanoate (in words) [2]: proved

O=C(O)c1ccccc1 [Benzoic acid]
MIC (Aureobasidium pullulans; [9]): 50 µg/mL (≈ 409 µM) | MIC (Aureobasidium pullulans; [10]): > 100 µg/mL | MIC (Aureobasidium pullulans; [11]): > 100 µg/mL

CCCCCCCCCC(=O)O [Capric acid]
MIC (Aureobasidium pullulans; [12]): 50 µg/mL (≈ 290 µM) | MIC (Aureobasidium pullulans; [13]): 100 µg/mL (≈ 580 µM) | MIC (Aureobasidium pullulans; [14]): > 100 µg/mL | Grading points, Surface mildew (surface mildew): 14 points | Grading points, Sapstain [2]: 3.5 points

CCCCCC(=O)O [Capronic acid]
pKa [1]: 4.83

CCCCCCCCCC[N+](C)(C)CCCCCCCCCC.[Cl-] [DDC, didecyldimethylammonium chloride]
Grade points, Mildew growth, Treated side [3]: 11 points | Grade points, Sapstain, Treated side [4, 15]: 12 points | Grade points, Sapstain, Treated side [4, 16]: 5 points | synergism with Na-2-ethylhexanoate (in words) [2]: proved

CCCCCCCCCCCC[N+](C)(C)C.[Cl-] [DMC, dodecyltrimethylammonium chloride]
MIC (Aureobasidium pullulans; [9]): 15 µg/mL | MIC (Aureobasidium pullulans; [10]): 15 µg/mL | MIC (Aureobasidium pullulans; [11]): 4 µg/mL | Grading points, Sapstain [2]: 1 points

CCCCCCCCCCCC[n+]1ccccc1 [DPC, dodecylpyridinium chloride]
Grading points, Surface mildew (surface mildew): 16 points | Grading points, Sapstain [2]: 3 points

CCCCCCCC[N+](C)(C)CCCCCCCC.[Cl-] [Dioctyldimethylammonium chloride, dioctyldimethylammonium chloride]
Growth of fungi, Molds (score) (mold fungi [5]; […] active ingredients): 1.5 | Growth of fungi, Sapstain (score) (sapstain fungi [6]; […] active ingredients): 1 | synergism with Na-2-ethylhexanoate (in words) [2]: proved

CCCCC(CC)C(=O)O (stereo not shown) [Na--2-ethylhexanoate, Na salt of 2-ethyl hexanoic acid]
Growth of fungi, Molds (score) (mold fungi [5]; […] active ingredients): 10 | Growth of fungi, Freshly cut pine sapwood, Molds (surface mildew) (score), value in square brackets (mold fungi [5]; [17]): 2 | control of mold growth (in words) (mold fungi [5]; […] a.i. solution): quite ineffective in controlling mold and stain fungi | synergism with trimethylcoco ammonium chloride (in words) (mold fungi [5]): most obvious | Growth of fungi, Sapstain (score) (sapstain fungi [6]; […] active ingredients): 10 | Growth of fungi, Freshly cut pine sapwood, Sapstain (score) (sapstain fungi [6]; TABLE 1, […] active ingredients, pH 8.5-10, 3 weeks, 20° C., 100% R.H., average of 5 replicates, value without brackets): 20 | Growth of fungi, Freshly cut pine sapwood, Sapstain (score), value in square brackets (sapstain fungi [6]; [17]): 2 | control of sapstain (in words) (sapstain fungi [6]; […] a.i. solution): quite ineffective in controlling mold and stain fungi | Grade points, Mildew growth, Treated side [3]: 20 points | Grade points, Sapstain, Treated side [4, 15]: 20 points | Grade points, Sapstain, Treated side [4, 16]: 16 points | Growth of fungi, Freshly cut pine sapwood, Molds (surface mildew) (score) (mold fungi [7]): 20 | Growth of fungi, Freshly cut pine sapwood, Sapstain (score) (sapstain fungi [8]): 20

CCCCCCCCCC(=O)O [Na-caprinoate]
Growth of fungi, Freshly cut pine sapwood, Molds (score) (mold fungi [5]; [18]): 20 | Growth of fungi, Freshly cut pine sapwood, Sapstain (score) (sapstain fungi [6]; [19]): 2.5

CCCCCCCC(=O)O [Na-caprylate]
Growth of fungi, Freshly cut pine sapwood, Molds (score) (mold fungi [5]; [18]): 20 | Growth of fungi, Freshly cut pine sapwood, Sapstain (score) (sapstain fungi [6]; [19]): 10.5

CCCCCCC(=O)O [Na-heptanoate]
Growth of fungi, Freshly cut pine sapwood, Molds (score) (mold fungi [5]; [18]): 20 | Growth of fungi, Freshly cut pine sapwood, Sapstain (score) (sapstain fungi [6]; [19]): 7

C/C=C/C=C/C(=O)O [Sorbic acid]
MIC (Aureobasidium pullulans; [12]): 50 µg/mL (≈ 446 µM) | MIC (Aureobasidium pullulans; [13]): 100 µg/mL (≈ 892 µM) | MIC (Aureobasidium pullulans; [14]): > 100 µg/mL | pKa [1]: 4.77

Na-iso-octanoate
Growth of fungi, Freshly cut pine sapwood, Molds (score) (mold fungi [5]; [20]): 20 | synergism with trimethylcoco ammonium chloride (in words) (mold fungi [5]): not as clear | Growth of fungi, Freshly cut pine sapwood, Sapstain (score) (sapstain fungi [6]; [21]): 20

Na-isononanoate
Growth of fungi, Freshly cut pine sapwood, Molds (score) (mold fungi [5]; [20]): 20 | synergism with trimethylcoco ammonium chloride (in words) (mold fungi [5]): quite obvious; also recorded: most obvious | Growth of fungi, Freshly cut pine sapwood, Sapstain (score) (sapstain fungi [6]; [21]): 20
